Experimental data from patent US9403823B2, “Protein kinase inhibitors” (ORIBASE PHARMA, priority 2012, dated 2016).
Where two headings read alike, the source gives them in different places.

Columns and labels:
A549 cell line = assay: In vitro cell proliferation assay (MTT), A549; assay type: cell-based; settings: Homo sapiens, read-out: EC50, anti-proliferative activity
Experimental: (§1) 2) In Vitro Cell Proliferation Assays (Table 22 to Table 35)
(§2) Cancer cell lines (5×10^3 cells per well) or HUVEC (1×10^4 cells per well) or HRMEC (1×10^4 cells per well) were distributed in 96-well plates and incubating in duplicate with escalating concentrations (10 nM to 3 μM) of compounds for 72 hr. Cell proliferation was measured using MTT (3[4,5-dimethylthiazol-2-yl]-2,5-diphenyltetrazolium bromide).

BRAF = target: T1, BRAF (Homo sapiens, UniProt P15056); assay: In vitro kinase assay (Z'-LYTE), BRAF; assay type: biochemical; settings: read-out: % of inhibition of the kinase compared to the control
T1 construct: purchased Invitrogen
T1 sequence (P15056 whole entry): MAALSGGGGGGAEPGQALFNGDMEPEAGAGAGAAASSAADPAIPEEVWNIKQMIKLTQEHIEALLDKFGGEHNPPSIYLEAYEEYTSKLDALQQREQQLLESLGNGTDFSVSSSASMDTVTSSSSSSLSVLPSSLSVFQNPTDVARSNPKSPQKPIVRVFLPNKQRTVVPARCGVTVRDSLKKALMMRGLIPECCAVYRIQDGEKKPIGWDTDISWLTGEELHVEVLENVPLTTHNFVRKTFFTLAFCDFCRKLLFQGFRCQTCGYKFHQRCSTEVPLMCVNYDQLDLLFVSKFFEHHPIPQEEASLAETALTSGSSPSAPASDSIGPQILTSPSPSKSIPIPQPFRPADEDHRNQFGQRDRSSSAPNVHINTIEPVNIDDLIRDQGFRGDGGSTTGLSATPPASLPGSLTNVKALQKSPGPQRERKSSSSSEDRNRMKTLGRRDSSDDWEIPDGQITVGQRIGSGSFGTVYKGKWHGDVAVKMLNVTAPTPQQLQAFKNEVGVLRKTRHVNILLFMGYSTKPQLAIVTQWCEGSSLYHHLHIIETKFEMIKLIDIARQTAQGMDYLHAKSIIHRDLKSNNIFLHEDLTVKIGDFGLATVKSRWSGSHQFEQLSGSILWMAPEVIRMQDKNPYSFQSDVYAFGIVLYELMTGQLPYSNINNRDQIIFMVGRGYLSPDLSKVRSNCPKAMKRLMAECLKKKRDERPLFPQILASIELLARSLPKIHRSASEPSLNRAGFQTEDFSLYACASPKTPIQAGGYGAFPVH
Experimental: (§3) 1) In Vitro Kinase Assays (Table 10 to Table 21)
(§4) The inhibitory activity of the compounds on several kinases including BRAF, EGFR (ErbB1), EGFR (ErbB1) T790M L858R, FGFR2, KDR (VEGFR2), PDGFRA (PDGFR alpha), SRC and other was evaluated by Invitrogen using the Z′-LYTE® technology. Briefly, the Z′-LYTE® biochemical assay employs a fluorescence-based, coupled-enzyme format and is based on the differential sensitivity of phosphorylated and non-phosphorylated peptides to proteolytic cleavage. The peptide substrate is labeled with two fluorophores—one at each end—that make up a FRET pair. A ratiometric method, which calculates the ratio (the Emission Ratio) of donor emission to acceptor emission after excitation of the donor fluorophore at 400 nm, is used to quantitate reaction progress.
(§5) The compounds are screened in 1% DMSO (final) in the well. For 10 point titrations, 3-fold serial dilutions are conducted from the starting concentration. All Peptide/Kinase Mixtures are diluted to a 2× working concentration in the appropriate Kinase Buffer. All ATP Solutions are diluted to a 4× working concentration in Kinase Buffer (50 mM HEPES pH 7.5, 0.01% BRIJ-35, 10 mM MgCl2, 1 mM EGTA). ATP Km apparent is previously determined using a Z′-LYTE® assay.
(§6) Each compound was incubated at a concentration of 100 nM (excepted to test the activity against ABL and ABL T315I for which the compounds were incubated at a concentration of 10 μM) and the tables 10 to 21 summarize the results obtained showing the inhibitory power of a compound.

EGFR (ErbB1) = target: T2, EGFR (ErbB1) (Homo sapiens, UniProt P00533); assay: In vitro kinase assay (Z'-LYTE), EGFR (ErbB1); assay type: biochemical; settings: read-out: % of inhibition of the kinase compared to the control
T2 construct: purchased Invitrogen
T2 sequence (P00533 25-1210): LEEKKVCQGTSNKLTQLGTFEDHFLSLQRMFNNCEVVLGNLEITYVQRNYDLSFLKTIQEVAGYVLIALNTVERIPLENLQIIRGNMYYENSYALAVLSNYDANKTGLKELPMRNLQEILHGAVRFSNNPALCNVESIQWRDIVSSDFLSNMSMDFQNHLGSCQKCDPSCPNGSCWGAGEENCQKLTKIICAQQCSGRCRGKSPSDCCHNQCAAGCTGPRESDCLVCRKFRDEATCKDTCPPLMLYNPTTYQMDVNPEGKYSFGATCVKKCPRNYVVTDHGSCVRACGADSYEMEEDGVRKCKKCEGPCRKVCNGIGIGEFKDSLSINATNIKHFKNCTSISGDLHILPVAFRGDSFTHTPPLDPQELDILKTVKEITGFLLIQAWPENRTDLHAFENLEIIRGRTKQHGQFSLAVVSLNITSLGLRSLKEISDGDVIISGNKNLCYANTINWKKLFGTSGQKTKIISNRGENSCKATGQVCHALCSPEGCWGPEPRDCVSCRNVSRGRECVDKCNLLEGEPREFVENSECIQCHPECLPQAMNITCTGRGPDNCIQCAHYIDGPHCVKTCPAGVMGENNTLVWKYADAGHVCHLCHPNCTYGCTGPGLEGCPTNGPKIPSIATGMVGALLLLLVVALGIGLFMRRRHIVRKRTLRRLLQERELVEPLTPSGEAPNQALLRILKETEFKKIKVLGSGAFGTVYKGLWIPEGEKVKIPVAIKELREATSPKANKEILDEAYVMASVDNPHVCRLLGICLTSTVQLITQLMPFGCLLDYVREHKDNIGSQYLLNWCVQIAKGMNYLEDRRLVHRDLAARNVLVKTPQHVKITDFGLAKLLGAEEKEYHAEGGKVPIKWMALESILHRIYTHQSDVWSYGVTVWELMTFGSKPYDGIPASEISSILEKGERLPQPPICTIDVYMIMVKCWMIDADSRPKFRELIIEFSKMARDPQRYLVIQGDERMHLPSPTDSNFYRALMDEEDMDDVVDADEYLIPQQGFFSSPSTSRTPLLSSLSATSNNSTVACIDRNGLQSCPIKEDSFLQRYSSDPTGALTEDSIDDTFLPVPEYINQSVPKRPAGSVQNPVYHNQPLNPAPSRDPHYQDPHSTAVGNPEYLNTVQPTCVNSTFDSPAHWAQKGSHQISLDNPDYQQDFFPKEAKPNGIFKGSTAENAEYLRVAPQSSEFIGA
Experimental: as §3, §4, §5, §6

EGFR (ErbB1) T790M L858R = target: T3, EGFR (ErbB1) T790M L858R (Homo sapiens, UniProt P00533, L858R/T790M); assay: In vitro kinase assay (Z'-LYTE), EGFR (ErbB1) T790M L858R; assay type: biochemical; settings: read-out: % of inhibition of the kinase compared to the control
T3 construct: purchased Invitrogen
Experimental: as §3, §4, §5, §6

FGFR2 = target: T4, FGFR2 (Homo sapiens, UniProt P21802); assay: In vitro kinase assay (Z'-LYTE), FGFR2; assay type: biochemical; settings: read-out: % of inhibition of the kinase compared to the control
T4 construct: purchased Invitrogen
Experimental: as §3, §4, §5, §6

KDR (VEGFR2) = target: T5, KDR (VEGFR2) (Homo sapiens, UniProt P35968); assay: In vitro kinase assay (Z'-LYTE), KDR (VEGFR2); assay type: biochemical; settings: read-out: % of inhibition of the kinase compared to the control
T5 construct: purchased Invitrogen
T5 sequence (P35968 20-1356): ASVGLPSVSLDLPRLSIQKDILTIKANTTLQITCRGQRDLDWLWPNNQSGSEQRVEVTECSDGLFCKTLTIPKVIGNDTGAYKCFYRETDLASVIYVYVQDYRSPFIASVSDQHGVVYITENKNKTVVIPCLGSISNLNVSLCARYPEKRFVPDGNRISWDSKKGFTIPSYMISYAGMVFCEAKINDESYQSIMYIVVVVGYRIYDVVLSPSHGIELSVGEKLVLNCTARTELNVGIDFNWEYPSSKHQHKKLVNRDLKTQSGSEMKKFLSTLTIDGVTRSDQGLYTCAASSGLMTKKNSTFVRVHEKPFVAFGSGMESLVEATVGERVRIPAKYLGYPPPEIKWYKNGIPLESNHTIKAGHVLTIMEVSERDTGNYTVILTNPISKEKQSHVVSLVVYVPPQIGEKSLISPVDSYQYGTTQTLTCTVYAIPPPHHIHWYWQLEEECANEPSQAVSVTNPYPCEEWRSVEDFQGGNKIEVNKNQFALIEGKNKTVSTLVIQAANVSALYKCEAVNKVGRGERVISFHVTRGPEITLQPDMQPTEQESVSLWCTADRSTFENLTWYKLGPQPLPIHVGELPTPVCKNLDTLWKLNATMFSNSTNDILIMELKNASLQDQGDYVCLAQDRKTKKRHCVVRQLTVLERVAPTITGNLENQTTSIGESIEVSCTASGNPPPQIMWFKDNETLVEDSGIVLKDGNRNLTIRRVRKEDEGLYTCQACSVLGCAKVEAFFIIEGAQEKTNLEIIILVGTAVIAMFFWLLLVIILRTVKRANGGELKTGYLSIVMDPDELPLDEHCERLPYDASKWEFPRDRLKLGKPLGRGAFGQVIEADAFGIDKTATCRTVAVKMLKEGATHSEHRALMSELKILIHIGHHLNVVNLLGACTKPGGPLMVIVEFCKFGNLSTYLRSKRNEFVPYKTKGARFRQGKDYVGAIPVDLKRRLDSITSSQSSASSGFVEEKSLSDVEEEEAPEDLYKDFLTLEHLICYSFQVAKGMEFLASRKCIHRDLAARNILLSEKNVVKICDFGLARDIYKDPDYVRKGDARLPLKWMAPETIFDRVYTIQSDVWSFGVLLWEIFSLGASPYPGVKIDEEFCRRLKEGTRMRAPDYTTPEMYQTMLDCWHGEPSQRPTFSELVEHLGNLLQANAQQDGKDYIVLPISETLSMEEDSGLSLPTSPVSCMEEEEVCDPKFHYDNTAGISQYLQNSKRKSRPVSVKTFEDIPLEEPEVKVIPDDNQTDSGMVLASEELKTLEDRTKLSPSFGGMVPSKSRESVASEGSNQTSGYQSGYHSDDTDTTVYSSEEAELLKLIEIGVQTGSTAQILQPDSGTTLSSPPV
Experimental: as §3, §4, §5, §6

PDGFRA (PDGFR alpha) = target: T6, PDGFRA (PDGFR alpha) (Homo sapiens, UniProt P16234); assay: In vitro kinase assay (Z'-LYTE), PDGFRA; assay type: biochemical; settings: read-out: % of inhibition of the kinase compared to the control
T6 construct: purchased Invitrogen
T6 sequence (P16234 24-1089): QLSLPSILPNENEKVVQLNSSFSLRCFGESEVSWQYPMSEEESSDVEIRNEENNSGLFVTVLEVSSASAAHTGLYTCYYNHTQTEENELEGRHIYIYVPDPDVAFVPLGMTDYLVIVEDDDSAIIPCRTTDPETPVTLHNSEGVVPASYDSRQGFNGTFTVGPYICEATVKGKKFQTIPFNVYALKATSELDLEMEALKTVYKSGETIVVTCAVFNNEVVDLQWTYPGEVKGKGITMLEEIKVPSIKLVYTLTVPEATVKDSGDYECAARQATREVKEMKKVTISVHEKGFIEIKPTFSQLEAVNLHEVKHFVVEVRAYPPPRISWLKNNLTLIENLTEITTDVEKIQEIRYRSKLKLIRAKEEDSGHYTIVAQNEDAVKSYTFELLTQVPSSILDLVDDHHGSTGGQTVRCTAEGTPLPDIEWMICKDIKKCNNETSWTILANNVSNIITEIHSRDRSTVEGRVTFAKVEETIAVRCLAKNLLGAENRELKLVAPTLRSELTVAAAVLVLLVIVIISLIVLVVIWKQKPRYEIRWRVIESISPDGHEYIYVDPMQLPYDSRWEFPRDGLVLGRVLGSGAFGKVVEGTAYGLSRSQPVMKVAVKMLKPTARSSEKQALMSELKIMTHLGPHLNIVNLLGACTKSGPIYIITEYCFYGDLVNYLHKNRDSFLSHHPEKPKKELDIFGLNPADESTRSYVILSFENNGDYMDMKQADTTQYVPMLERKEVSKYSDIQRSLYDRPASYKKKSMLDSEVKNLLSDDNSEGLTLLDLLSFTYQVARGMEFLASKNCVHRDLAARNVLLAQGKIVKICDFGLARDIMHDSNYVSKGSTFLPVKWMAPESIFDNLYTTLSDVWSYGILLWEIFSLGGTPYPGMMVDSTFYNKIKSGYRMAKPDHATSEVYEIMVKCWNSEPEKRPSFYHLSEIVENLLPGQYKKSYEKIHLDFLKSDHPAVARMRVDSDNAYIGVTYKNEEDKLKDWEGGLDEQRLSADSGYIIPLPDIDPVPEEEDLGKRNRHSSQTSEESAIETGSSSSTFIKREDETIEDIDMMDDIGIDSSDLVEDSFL
Experimental: as §3, §4, §5, §6

SRC = target: T7, SRC (Homo sapiens, UniProt P12931); assay: In vitro kinase assay (Z'-LYTE), SRC; assay type: biochemical; settings: read-out: % of inhibition of the kinase compared to the control
T7 construct: purchased Invitrogen
T7 sequence (P12931 whole entry): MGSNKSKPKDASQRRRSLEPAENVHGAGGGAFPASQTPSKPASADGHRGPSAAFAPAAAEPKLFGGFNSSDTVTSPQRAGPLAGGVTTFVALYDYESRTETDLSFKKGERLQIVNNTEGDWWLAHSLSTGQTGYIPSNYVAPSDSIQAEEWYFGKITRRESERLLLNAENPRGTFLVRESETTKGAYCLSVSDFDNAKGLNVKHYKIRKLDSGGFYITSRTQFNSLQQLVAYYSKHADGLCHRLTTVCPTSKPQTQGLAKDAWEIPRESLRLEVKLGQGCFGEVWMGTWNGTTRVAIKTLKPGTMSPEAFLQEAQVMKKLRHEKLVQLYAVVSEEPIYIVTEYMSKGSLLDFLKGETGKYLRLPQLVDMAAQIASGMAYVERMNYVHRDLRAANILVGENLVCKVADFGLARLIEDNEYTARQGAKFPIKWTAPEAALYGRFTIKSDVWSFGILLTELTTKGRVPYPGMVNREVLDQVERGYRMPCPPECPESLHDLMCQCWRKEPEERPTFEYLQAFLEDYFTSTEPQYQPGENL
Experimental: as §3, §4, §5, §6

HepG2 cell line = assay: In vitro cell proliferation assay (MTT), HepG2; assay type: cell-based; settings: Homo sapiens, read-out: EC50, anti-proliferative activity
Experimental: as §1, §2

HUVEC = assay: In vitro cell proliferation assay (MTT), HUVEC; assay type: cell-based; settings: Homo sapiens, 72 hr, MTT, read-out: EC50, anti-proliferative activity
Experimental: as §1, §2

MDA-MB-231 cell line = assay: In vitro cell proliferation assay (MTT), MDA-MB-231; assay type: cell-based; settings: Homo sapiens; MDA-MB-231, 72 hr, MTT; read-out: EC50, anti-proliferative activity
Experimental: as §1, §2

Structure (SMILES)	EC50 (A549 cell line; A549, 72 hr, MTT)	inhibition at 0.1 µM (BRAF)	inhibition at 0.1 µM (EGFR (ErbB1))	inhibition at 0.1 µM (EGFR (ErbB1) T790M L858R)	inhibition at 0.1 µM (FGFR2)	inhibition at 0.1 µM (KDR (VEGFR2))	inhibition at 0.1 µM (PDGFRA (PDGFR alpha))	inhibition at 0.1 µM (SRC)	EC50 (HepG2 cell line; HepG2, 72 h)	EC50 (HUVEC)	EC50 (HepG2 cell line; HepG2, 72 hr, MTT)	EC50 (MDA-MB-231 cell line)	EC50 (A549 cell line; A549, 72 h)
C#Cc1cccc(Nc2ncnc3cc(OCCOC)c(OCCOC)cc23)c1 [Erlotinib, reference compound]	≥ 1000 nM												
Cc1ccc(NC(=O)c2ccc(CN3CCN(C)CC3)cc2)cc1CNc1cnc2[nH]c(C(=O)O)cc2c1 [OR0692, 5-{2-Methyl-5-[4-(4-methyl-piperazin-1-ylmethyl)-benzoylamino]-benzylamino}-1H-pyrrolo[2,3-b]pyridine-2-carboxylic acid]		< 50%	≥ 50%	< 50%	< 50%	≥ 50%	≥ 50%	≥ 50%					
CC(=O)c1cc2cc(NCc3cc(NC(=O)Nc4cccc(C(F)(F)F)c4)ccc3C)cnc2[nH]1 [OR0895, 1-{3-[(2-Acetyl-1H-pyrrolo[2,3-b]pyridin-5-ylamino)-methyl]-4-methyl-phenyl}-3-(3-trifluoromethyl-phenyl)-urea]		< 50%	< 50%		< 50%	< 50%	≥ 50%	< 50%	100 to 1000 nM	≥ 1000 nM			
CC(=O)c1cc2cc(NCc3cc(NC(=O)Nc4cccnc4)ccc3C)cnc2[nH]1 [OR0897, 1-{3-[(2-Acetyl-1H-pyrrolo[2,3-b]pyridin-5-ylamino)-methyl]-4-methyl-phenyl}-3-pyridin-3-yl-urea]		≥ 50%	< 50%		< 50%	< 50%	≥ 50%	< 50%	≤ 100 nM	≥ 1000 nM			
CC(=O)c1cc2cc(NCc3cc(NC(=O)C4CC4)ccc3C)cnc2[nH]1 [OR0929, Cyclopropanecarboxylic acid {3-[(2-acetyl-1H-pyrrolo[2,3-b]pyridin-5-ylamino)-methyl]-4-methyl-phenyl}-amide]		< 50%	< 50%		< 50%	< 50%	< 50%	< 50%		≥ 1000 nM	≥ 1000 nM		
CC(=O)c1cc2cc(NCc3cc(NS(=O)(=O)c4cccc(C(F)(F)F)c4)ccc3C)cnc2[nH]1 [OR0930, N-{3-[(2-Acetyl-1H-pyrrolo[2,3-b]pyridin-5-ylamino)-methyl]-4-methyl-phenyl}-3-trifluoromethyl-benzenesulfonamide]		< 50%	< 50%		< 50%	< 50%	< 50%	< 50%		≥ 1000 nM	≥ 1000 nM		
CC(=O)c1cc2cc(NCc3cccc(NC(=O)c4cncc(C(F)(F)F)c4)c3)cnc2[nH]1 [OR0950, N-{3-[(2-Acetyl-1H-pyrrolo[2,3-b]pyridin-5-ylamino)-methyl]-phenyl}-5-trifluoromethyl-nicotinamide]		≥ 50%	< 50%		< 50%	≥ 50%	≥ 50%	< 50%	100 to 1000 nM	≥ 1000 nM			
CC(=O)c1cc2cc(NC(=O)c3cc(NC(=O)Nc4cccc(C(F)(F)F)c4)ccc3C)cnc2[nH]1 [OR0951, N-(2-Acetyl-1H-pyrrolo[2,3-b]pyridin-5-yl)-2-methyl-5-[3-(3-trifluoromethyl-phenyl)-ureido]-benzamide]		< 50%	< 50%		< 50%	< 50%	< 50%	< 50%	≤ 100 nM	≥ 1000 nM			
CC(=O)c1cc2cc(NCc3cc(NC(=O)Cc4cccc(C(F)(F)F)c4)ccc3C)cnc2[nH]1 [OR0968, N-{3-[(2-Acetyl-1H-pyrrolo[2,3-b]pyridin-5-ylamino)-methyl]-4-methyl-phenyl}-2-(3-trifluoromethyl-phenyl)-acetamide]		≥ 50%	< 50%		< 50%	< 50%	≥ 50%	< 50%	100 to 1000 nM	≥ 1000 nM			
CC(=O)c1cc2cc(NCc3cc(NC(=O)c4ccc5[nH]nnc5c4)ccc3C)cnc2[nH]1 [OR0979, 1H-Benzotriazole-5-carboxylic acid {3-[(2-acetyl-1H-pyrrolo[2,3-b]pyridin-5-ylamino)-methyl]-4-methyl-phenyl}-amide]		≥ 50%	< 50%		< 50%	< 50%	≥ 50%	< 50%		≥ 1000 nM	≥ 1000 nM		
CC(=O)c1cc2cc(NCc3cc(NC(=O)c4ccc5[nH]ccc5c4)ccc3C)cnc2[nH]1 [OR0980, 1H-Indole-5-carboxylic acid {3-[(2-acetyl-1H-pyrrolo[2,3-b]pyridin-5-ylamino)-methyl]-4-methyl-phenyl}-amide]		≥ 50%	< 50%		< 50%	< 50%	≥ 50%	< 50%	100 to 1000 nM	≥ 1000 nM			
CC(=O)c1cc2cc(NCc3cc(NC(=O)c4cc[nH]c4)ccc3C)cnc2[nH]1 [OR0986, 1H-Pyrrole-3-carboxylic acid {3-[(2-acetyl-1H-pyrrolo[2,3-b]pyridin-5-ylamino)-methyl]-4-methyl-phenyl}-amide]		≥ 50%	< 50%		< 50%	< 50%	≥ 50%	< 50%		≥ 1000 nM	≥ 1000 nM		
CC(=O)c1cc2cc(NCc3cc(NC(=O)c4ccn[nH]4)ccc3C)cnc2[nH]1 [OR0987, 2H-Pyrazole-3-carboxylic acid {3-[(2-acetyl-1H-pyrrolo[2,3-b]pyridin-5-ylamino)-methyl]-4-methyl-phenyl}-amide]		≥ 50%	< 50%		< 50%	≥ 50%	≥ 50%	< 50%		≥ 1000 nM	≥ 1000 nM		
CC(=O)c1cc2cc(NCc3cc(NC(=O)c4ccncn4)ccc3C)cnc2[nH]1 [OR0988, Pyrimidine-4-carboxylic acid {3-[(2-acetyl-1H-pyrrolo[2,3-b]pyridin-5-ylamino)-methyl]-4-methyl-phenyl}-amide]		< 50%	< 50%		< 50%	< 50%	< 50%	< 50%		≥ 1000 nM	≥ 1000 nM		
Cc1ccc(NC(=O)c2cncc(C(F)(F)F)c2)cc1C(=S)Nc1cnc2[nH]c(C(=O)O)cc2c1 [OR1053]	≥ 1000 nM	< 50%	≥ 50%		< 50%	< 50%	≥ 50%	≥ 50%		≥ 1000 nM	≥ 1000 nM	≥ 1000 nM	
CCN(CC)C(=O)c1cc2cc(NCc3cc(NC(=O)c4ccc(CN5CCN(C)CC5)c(C(F)(F)F)c4)ccc3C)cnc2[nH]1 [OR1076, 5-{2-Methyl-5-[4-(4-methyl-piperazin-1-ylmethyl)-3-trifluoromethyl-benzoylamino]-benzylamino}-1H-pyrrolo[2,3-b]pyridine-2-carboxylic acid diethylamide]													100 to 1000 nM
